The values that follow come from ChEMBL document CHEMBL4813957, “Antitubercular properties of thiazolidin-4-ones - A review” (Eur J Med Chem, 2021).

The test system of data set [1] is Mycobacterium tuberculosis. Put plainly: Antimycobacterial activity against Mycobacterium tuberculosis ATCC 27286 assessed as zone of inhibition at 20 ug/ml. It is filed as functional. The conditions noted are these: read-out: IZ.
Data set [2] deals with T1, Enoyl-[acyl-carrier-protein] reductase [NADH] (Mycobacterium tuberculosis, UniProt P9WGR1).
T1 sequence (P9WGR1 whole entry): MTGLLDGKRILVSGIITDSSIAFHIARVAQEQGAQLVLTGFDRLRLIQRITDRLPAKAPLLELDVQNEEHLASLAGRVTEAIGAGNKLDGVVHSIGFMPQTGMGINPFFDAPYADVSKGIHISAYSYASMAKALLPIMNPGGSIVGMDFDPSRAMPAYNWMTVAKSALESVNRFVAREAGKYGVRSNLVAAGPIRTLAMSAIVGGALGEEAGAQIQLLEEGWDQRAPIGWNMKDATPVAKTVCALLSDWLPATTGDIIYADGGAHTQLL
In words: Inhibition of Mycobacterium tuberculosis InhA.

A short description of data set [3]: Cytotoxicity against African green monkey Vero cells after 72 hrs by cell titer glo luminescent cell viability assay. It counts as cell-based. The note with it: chlorocebus sabaeus.
For data set [4], the system named is Mycobacterium tuberculosis. Put plainly: Antimycobacterial activity against Mycobacterium tuberculosis H37Rv 27294 by microplate alamar blue assay. It counts as functional.
A short description of data set [5]: Selectivity ratio of CC50 for African green monkey Vero E6 cells to IC90 for Mycobacterium tuberculosis H37Rv 27294. It is filed as toxicity, Vero C1008.
Data set [6] concerns Mycobacterium tuberculosis. Put plainly: Antimycobacterial activity against Mycobacterium tuberculosis H37Rv ATCC 25618 incubated for 5 days by colorimetric microdilution assay. It counts as functional. The conditions noted are these: H37Rv ATCC 25618, 120 h, time 5 day.
The subject of data set [7] is Mycobacterium tuberculosis. In words: Antimycobacterial activity against Mycobacterium tuberculosis H37Ra ATCC 25177 assessed as inhibition of bacteria at 30 ug/ml by XTT reduction menadione assay relative to control. It counts as functional.
Data set [8] deals with Mycobacterium tuberculosis. In words: Antimycobacterial activity against Mycobacterium tuberculosis H37Rv ATCC 27294. It is filed as functional.
Data set [9] deals with Mycobacterium tuberculosis. In words: Antimycobacterial activity against Mycobacterium tuberculosis H37Rv measured after 11 to 12 days. The conditions noted are these: time 11-12 day. It counts as functional.
The test system of data set [10] is Mycobacterium tuberculosis. In words: Antimycobacterial activity against Mycobacterium tuberculosis HN878 measured up to 2 weeks. It is filed as functional. The note with it: HN878, 336 h, time weeks <=2.
Data set [11] relates to Mycobacterium tuberculosis. In words: Antimycobacterial activity against Mycobacterium tuberculosis Erdman measured up to 2 weeks. It is filed as functional. The note with it: 336 h, time weeks <=2.
Data set [12] has as its system Mycobacterium tuberculosis. In words: Antimycobacterial activity against Mycobacterium tuberculosis measured up to 2 weeks. The conditions noted are these: 336 h, time weeks <=2. It counts as functional.
Data set [13] has as its system Mycobacterium tuberculosis. In words: Antimycobacterial activity against Mycobacterium tuberculosis H37Rv ATCC 27294 assessed as growth inhibition at 12.5 ug/ml by microplate alamar blue assay relative to control. It is filed as functional. The conditions noted are these: read-out: GI.
Data set [14] deals with Mycobacterium tuberculosis. In words: Antimycobacterial activity against Mycobacterium tuberculosis H37Ra ATCC 25177 by XTT Reduction Menadione assay. It is filed as functional.
Data set [15] can be described thus: Selectivity ratio of IC50 for human WI-38 cells to MIC for Mycobacterium tuberculosis RCMB 010126. It counts as toxicity.
The subject of another data set is WI-38. Put plainly: Cytotoxicity against human WI-38 cells by MTT assay. It counts as cell-based.
The subject of data set [16] is Mycobacterium tuberculosis. In words: Antimycobacterial activity against Mycobacterium tuberculosis RCMB 010126 measured after 7 days by microplate alamar blue assay. It counts as functional. The conditions noted are these: RCMB 010126, 168 h, time 7 day.
Data set [17] deals with Mycobacterium tuberculosis. Put plainly: Antimycobacterial activity against Mycobacterium tuberculosis H37Rv ATCC 27294 incubated for 5 days by microplate alamar blue assay. It is filed as functional. The conditions noted are these: H37Rv ATCC 27294, 120 h, time 5 day.
In data set [18] the test system is Mycobacterium tuberculosis. In words: Antimycobacterial activity against Mycobacterium tuberculosis H37Rv ATCC27294 measured after 28 days by two-fold serial dilution method. It is filed as functional. The conditions noted are these: H37Rv ATCC 27294, 672 h, time 28 day.
Data set [19] relates to Mycobacterium tuberculosis. In words: Antimycobacterial activity against Mycobacterium tuberculosis H37Rv by Lowenstein-Jensen agar method. It is filed as functional.
Data set [20] has as its system Mycobacterium tuberculosis. In words: Antimycobacterial activity against Mycobacterium tuberculosis H37Rv measured after 12 to 28 days by Lowenstein-Jensen method. It counts as functional. The note with it: time 12-28 day.
In data set [21] the test system is Mycobacterium tuberculosis. Put plainly: Antimycobacterial activity against Mycobacterium tuberculosis H37Rv by filter paper disc diffusion method. It is filed as functional.

Converted amounts (≈) assume the structure as drawn.

Consider `O=C(NN1C(=O)CSC1c1c[nH]c2ccccc12)c1ccncc1` (configuration not stated), for which the zone of inhibition at 20 µg/mL in data set [1] was found to be 35 mm. In addition, the affinity in data set [2] corresponds to a Ki of 641 nM.
`CCN1C(=O)/C(=C/c2ccc(OC)cc2)S/C1=N/NC(=O)c1ccncc1` registered a CC50 at 72 h in [3] of 36.9 µg/mL (≈ 96.4 µM). In [4], this compound registered an IC90 of 2.95 µg/mL (≈ 7.72 µM). In [5], the selectivity ratio was 18.1.
Take `C/C(=N/N=C1\NC(=O)CS1)c1cc2ccccc2oc1=O`: the minimal inhibitory concentration (MIC) in [6] stood at 83 µg/mL (≈ 275 µM).
Take `Cc1nc(-c2cnccn2)sc1C(=O)NN1C(=O)CSC1c1ccccc1` (configuration not stated): the inhibition at 30 µg/mL in data set [7] was 71%.
In data set [8], `CCn1c(C(=O)NN2C(=O)CSC2c2ccc([N+](=O)[O-])cc2)cc(=O)c2cc(F)c(N3CCNCC3)cc21` (configuration not stated) displayed an MIC of 16.3 µM (≈ 8.8 µg/mL).
In the case of `O=C(O)CCCCCC1NC(=O)CS1` (configuration not stated), the minimum inhibitory concentration (MIC) in data set [9] is 1.56 µM (≈ 0.339 µg/mL); in [10], 0.6 µM (≈ 0.13 µg/mL); in data set [11], 1.56 µM (≈ 0.339 µg/mL); in data set [12] it was 0.096 µM (≈ 0.0209 µg/mL).
As to `O=C1CSC(c2c(-c3ccccc3)[nH]c3ccc(Cl)cc23)N1c1nc(-c2cc3cc(Br)ccc3oc2=O)cs1` (configuration not stated), the inhibition of growth at 12.5 µg/mL in data set [13] came to 80%.
In turn, `O=C1NC(=S)S/C1=C\c1ccc([N+](=O)[O-])cc1` returned an IC90 in [14] of 22.3 µg/mL (≈ 83.7 µM).
Regarding `CCOC(=O)c1sc(/N=C2\NC(=O)/C(=C/c3cccnc3)S2)nc1C`, in [15], the selectivity ratio was 52. In addition, in the data set with WI-38, inhibition was half-maximal at 81.3 µg/mL (≈ 217 µM) (IC50). Moreover, 1.56 µg/mL (≈ 4.17 µM) was the least that counted as inhibitory in data set [16] (MIC).
In the case of `CO[C@H]1/C=C/O[C@@]2(C)Oc3c(C)c(O)c4c(O)c(c(/C=N/N5CCN(C)CC5)c(O)c4c3C2=O)NC(=O)/C(C)=C\C=C\[C@H](C)[C@H](O)[C@@H](C)[C@@H](O)[C@@H](C)[C@H](OC(C)=O)[C@@H]1C` [RIFAMPIN], the MIC came to 1 µg/mL (≈ 1.22 µM) in data set [17]; 0.24 µM (≈ 0.198 µg/mL) in data set [18]; 40 µg/mL (≈ 48.6 µM) in data set [19]; 40 µg/mL (≈ 48.6 µM) in data set [20]; 2.5 µg/mL (≈ 3.04 µM) in data set [21].
